Experimental findings from US20260007681A1, “INDOLE DERIVATIVES AS ESTROGEN RECEPTOR DEGRADERS” (REGENTS OF THE UNIVERSITY OF MICHIGAN, priority 2022, published 2026) are described below.

One assay has as its target ER (Homo sapiens (Human), UniProt P03372). In words: In-cell western blot analysis of relative ER percentage (Compounds B1-B278). Format: cell-based. The following applies: ER degradation, 16 hours, read-out: ICW DC50. The essentials: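 In-cell western: after 16 h compound exposure (0.5% DMSO final), fixed and permeabilized cells are probed with anti-ER plus anti-GAPDH and near-infrared secondaries. Relative ER percentage compares treated wells against untreated and DMSO wells taken as 100%; seeding 40,000 or 10,000 cells/well.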

Assay [1] can be described thus: Cell growth assay (WST-8) (Compounds B1-B278). In kind it is cell-based. Particulars: 96 h; T47D cell line; WST-8, 4 days; read-out: Cell Growth Inhibition in T47D cell line IC50. In short, it runs like this: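 Read-out is WST-8 absorbance at 450 nm (2.5 h, 37° C) as a fraction of vehicle control, from three separate repeats. Compound exposure lasted 4 days, starting one day after plating 1500 cells/well.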

Some results are limits rather than exact numbers.

Sequence of ER (P03372 whole entry): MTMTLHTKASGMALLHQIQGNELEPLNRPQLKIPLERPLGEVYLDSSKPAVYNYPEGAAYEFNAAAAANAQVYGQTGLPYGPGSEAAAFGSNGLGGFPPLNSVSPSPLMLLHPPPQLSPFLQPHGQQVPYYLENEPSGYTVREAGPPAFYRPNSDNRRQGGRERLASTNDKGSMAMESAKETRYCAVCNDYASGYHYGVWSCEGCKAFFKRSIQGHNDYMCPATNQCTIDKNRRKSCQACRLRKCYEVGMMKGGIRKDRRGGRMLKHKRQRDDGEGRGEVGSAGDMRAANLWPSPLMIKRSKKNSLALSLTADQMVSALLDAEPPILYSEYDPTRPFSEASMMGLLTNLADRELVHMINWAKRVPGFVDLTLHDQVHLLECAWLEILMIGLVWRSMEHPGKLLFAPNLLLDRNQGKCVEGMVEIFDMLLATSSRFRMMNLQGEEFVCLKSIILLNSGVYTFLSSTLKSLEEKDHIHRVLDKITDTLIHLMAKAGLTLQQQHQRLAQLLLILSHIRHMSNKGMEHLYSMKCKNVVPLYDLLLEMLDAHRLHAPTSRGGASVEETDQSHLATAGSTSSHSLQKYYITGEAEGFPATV

`C[C@@H]1Cc2c([nH]c3ccccc23)[C@@H](c2c(F)cc(N3CCN(C(=O)CN4CCN5c6ccc7c(c6OC[C@H]5C4)CN(C4CCC(=O)NC4=O)C7=O)CC3)cc2F)N1CC(F)F` (stereo partly drawn) [Compound B151, 3-((R)-7-(2-(4-(4-((1R,3R)-2-(2,2-difluoroethyl)-3-methyl-2,3,4,9-tetrahydro-1H-pyrido[3,4-b]indol-1-yl)-3,5-difluorophenyl)piperazin-1-yl)-2-oxoethyl)-1-oxo-1,3,5,5a,6,7,8,9-octahydro-2H-pyrazino[1′,2′:4,5][1,4]oxazino[2,3-e]isoindol-2-yl)piperidine-2,6-dione]: the half-maximal degradation concentration (DC50) at ER was more than 100 nM. Further, the IC50 in assay [1] was less than 1 nM.
`C[C@@H]1Cc2c([nH]c3ccccc23)[C@@H](c2cnc(N3CCC4(CC3)CC(CN3CCN5c6ccc7c(c6OC[C@H]5C3)CN(C3CCC(=O)NC3=O)C7=O)C4)nc2)N1CC(F)(F)CO` (stereo partly drawn) [Compound B153, 3-((R)-7-((7-(5-((1R,3R)-2-(2,2-difluoro-3-hydroxypropyl)-3-methyl-2,3,4,9-tetrahydro-1H-pyrido[3,4-b]indol-1-yl)pyrimidin-2-yl)-7-azaspiro[3.5]nonan-2-yl)methyl)-1-oxo-1,3,5,5a,6,7,8,9-octahydro-2H-pyrazino[1′,2′:4,5][1,4]oxazino[2,3-e]isoindol-2-yl)piperidine-2,6-dione]: at ER, the DC50 was in the range of 10 to 100 nM. Besides, in assay [1], the IC50 was in the range of 1 to 10 nM.
For `C[C@@H]1Cc2c([nH]c3ccccc23)[C@@H](c2cnc(N3CC4(CCC(CN5CCN6c7ccc8c(c7OC[C@H]6C5)CN(C5CCC(=O)NC5=O)C8=O)CC4)C3)nc2)N1CC(F)(F)CO` (stereo partly drawn) [Compound B154, 3-((R)-7-((2-(5-((1R,3R)-2-(2,2-difluoro-3-hydroxypropyl)-3-methyl-2,3,4,9-tetrahydro-1H-pyrido[3,4-b]indol-1-yl)pyrimidin-2-yl)-2-azaspiro[3.5]nonan-7-yl)methyl)-1-oxo-1,3,5,5a,6,7,8,9-octahydro-2H-pyrazino[1′,2′:4,5][1,4]oxazino[2,3-e]isoindol-2-yl)piperidine-2,6-dione], the DC50 at ER was in the range of 10 to 100 nM. In addition, the 50% inhibitory concentration (IC50) in assay [1] fell in the range of 1 to 10 nM.
As for `C[C@@H]1Cc2c([nH]c3ccccc23)[C@@H](c2cnc(N3CCC4(CC3)CC(N3CCN5c6ccc7c(c6OC[C@H]5C3)CN(C3CCC(=O)NC3=O)C7=O)C4)nc2)N1CC(F)F` (stereo partly drawn) [Compound B155, 3-((R)-7-(7-(5-((1R,3R)-2-(2,2-difluoroethyl)-3-methyl-2,3,4,9-tetrahydro-1H-pyrido[3,4-b]indol-1-yl)pyrimidin-2-yl)-7-azaspiro[3.5]nonan-2-yl)-1-oxo-1,3,5,5a,6,7,8,9-octahydro-2H-pyrazino[1′,2′:4,5][1,4]oxazino[2,3-e]isoindol-2-yl)piperidine-2,6-dione], at ER, the DC50 is more than 100 nM. The half-maximal inhibitory concentration (IC50) in assay [1] was in the range of 1 to 10 nM.
Take `C[C@@H]1Cc2c([nH]c3ccccc23)[C@@H](c2cnc(N3CC4(CCC(N5CCN6c7ccc8c(c7OC[C@H]6C5)CN(C5CCC(=O)NC5=O)C8=O)CC4)C3)nc2)N1CC(F)F` (stereo partly drawn) [Compound B156, 3-((R)-7-(2-(5-((1R,3R)-2-(2,2-difluoroethyl)-3-methyl-2,3,4,9-tetrahydro-1H-pyrido[3,4-b]indol-1-yl)pyrimidin-2-yl)-2-azaspiro[3.5]nonan-7-yl)-1-oxo-1,3,5,5a,6,7,8,9-octahydro-2H-pyrazino[1′,2′:4,5][1,4]oxazino[2,3-e]isoindol-2-yl)piperidine-2,6-dione]: the half-maximal degradation concentration (DC50) at ER is more than 100 nM. For the same molecule, the IC50 in assay [1] was more than 10 nM.
`C[C@@H]1Cc2c([nH]c3ccccc23)[C@@H](c2cnc(N3CCC4(CC(CN5CCN6c7ccc8c(c7OC[C@H]6C5)CN(C5CCC(=O)NC5=O)C8=O)C4)C3)nc2)N1CC(F)F` (stereo partly drawn) [Compound B157, 3-((R)-7-((6-(5-((1R,3R)-2-(2,2-difluoroethyl)-3-methyl-2,3,4,9-tetrahydro-1H-pyrido[3,4-b]indol-1-yl)pyrimidin-2-yl)-6-azaspiro[3.4]octan-2-yl)methyl)-1-oxo-1,3,5,5a,6,7,8,9-octahydro-2H-pyrazino[1′,2′:4,5][1,4]oxazino[2,3-e]isoindol-2-yl)piperidine-2,6-dione]: the half-maximal degradation concentration (DC50) on ER is more than 100 nM. In assay [1], the IC50 lay in the range of 1 to 10 nM.
`C[C@@H]1Cc2c([nH]c3ccccc23)[C@@H](c2cnc(N3CC4(CCC(N5CCN6c7ccc8c(c7OC[C@H]6C5)CN(C5CCC(=O)NC5=O)C8=O)CC4)C3)nc2)N1CC(F)(F)CO` (stereo partly drawn) [Compound B158, 3-((R)-7-(2-(5-((1R,3R)-2-(2,2-difluoro-3-hydroxypropyl)-3-methyl-2,3,4,9-tetrahydro-1H-pyrido[3,4-b]indol-1-yl)pyrimidin-2-yl)-2-azaspiro[3.5]nonan-7-yl)-1-oxo-1,3,5,5a,6,7,8,9-octahydro-2H-pyrazino[1′,2′:4,5][1,4]oxazino[2,3-e]isoindol-2-yl)piperidine-2,6-dione]: the DC50 at ER is more than 100 nM. Also, the concentration for half-maximal inhibition (IC50) in assay [1] is less than 1 nM.
For `C[C@@H]1Cc2c([nH]c3ccccc23)[C@@H](c2cnc(N3CCC(CCN4CCN5c6ccc7c(c6OC[C@H]5C4)CN(C4CCC(=O)NC4=O)C7=O)CC3)nc2)N1CC(F)(F)CO` (stereo partly drawn) [Compound B159, 3-((R)-7-(2-(1-(5-((1R,3R)-2-(2,2-difluoro-3-hydroxypropyl)-3-methyl-2,3,4,9-tetrahydro-1H-pyrido[3,4-b]indol-1-yl)pyrimidin-2-yl)piperidin-4-yl)ethyl)-1-oxo-1,3,5,5a,6,7,8,9-octahydro-2H-pyrazino[1′,2′:4,5][1,4]oxazino[2,3-e]isoindol-2-yl)piperidine-2,6-dione], at ER, the DC50 is more than 100 nM. For the same molecule, the IC50 in assay [1] was more than 10 nM.
As for `C[C@@H]1Cc2c([nH]c3ccccc23)[C@@H](c2cnc(N3CCC(CCN4CCN5c6ccc7c(c6OC[C@H]5C4)CN(C4CCC(=O)NC4=O)C7=O)CC3)nc2)N1CC(F)F` (stereo partly drawn) [Compound B160, 3-((R)-7-(2-(1-(5-((1R,3R)-2-(2,2-difluoroethyl)-3-methyl-2,3,4,9-tetrahydro-1H-pyrido[3,4-b]indol-1-yl)pyrimidin-2-yl)piperidin-4-yl)ethyl)-1-oxo-1,3,5,5a,6,7,8,9-octahydro-2H-pyrazino[1′,2′:4,5][1,4]oxazino[2,3-e]isoindol-2-yl)piperidine-2,6-dione], the 50% degradation concentration (DC50) at ER is more than 100 nM. In assay [1], the IC50 was in the range of 1 to 10 nM.
For `C[C@@H]1Cc2c([nH]c3ccccc23)[C@@H](c2cnc(N3CCC4(CCC(CN5CCN6c7ccc8c(c7OC[C@H]6C5)CN(C5CCC(=O)NC5=O)C8=O)CC4)CC3)nc2)N1CC(F)F` (stereo partly drawn) [Compound B161, 3-((R)-7-((3-(5-((1R,3R)-2-(2,2-difluoroethyl)-3-methyl-2,3,4,9-tetrahydro-1H-pyrido[3,4-b]indol-1-yl)pyrimidin-2-yl)-3-azaspiro[5.5]undecan-9-yl)methyl)-1-oxo-1,3,5,5a,6,7,8,9-octahydro-2H-pyrazino[1′,2′:4,5][1,4]oxazino[2,3-e]isoindol-2-yl)piperidine-2,6-dione], at ER, the DC50 was more than 100 nM. Moreover, the IC50 in assay [1] was more than 10 nM.
